According to patent publication US8518945B2, “Pyrrolopyrazine kinase inhibitors” (Hoffmann-La Roche Inc., priority 2010, dated 2013):

molecular target: T1, h-jak3(810-1124) (JAK3: Recombinant human kinase domain) (Homo sapiens, UniProt P52333); experiment: Determination of IC50 of Janus Kinase (JAK) inhibition: JAK3 radioactive end-point 33P-ATP kinase assay; assay type: biochemical; conditions: no additive; ATP 1.5 uM, peptide 50 uM, 20 minutes, room temperature; read-out: Ic50 h-jak3(810-1124)-sf9-c: no additive
T1 construct: jak3(810- 1124)-sf9-c; made in house; host or cells: Sf9
T1 sequence (P52333 810-1124): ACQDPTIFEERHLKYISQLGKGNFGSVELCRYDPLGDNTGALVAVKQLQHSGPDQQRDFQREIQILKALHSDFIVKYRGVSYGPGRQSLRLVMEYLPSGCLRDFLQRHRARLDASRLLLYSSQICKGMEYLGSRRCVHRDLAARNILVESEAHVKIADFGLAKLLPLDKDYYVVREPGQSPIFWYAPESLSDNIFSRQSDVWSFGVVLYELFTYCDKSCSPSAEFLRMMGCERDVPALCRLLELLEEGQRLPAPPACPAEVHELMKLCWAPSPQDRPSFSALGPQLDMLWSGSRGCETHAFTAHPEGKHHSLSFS
Description: Determination of IC50 of Janus Kinase (JAK) Inhibition:
Enzymes and peptide substrate used are described below: • JAK1: Recombinant human kinase domain from Invitrogen (Cat # PV4774) • JAK3: Recombinant human kinase domain from Millipore (Cat # 14-629) or prepared. • JAK2: Recombinant human kinase domain from Millipore (Cat # 14-640) • Substrate: N-terminally biotinylated 14-mer peptide derived from activation loop of JAK1 with sequence of the peptide substrate: Biotin-[sequence]
Assay conditions— used are described below: • Assay Buffer: JAK Kinase Buffer: 50 mM Hepes [pH 7.2], 10 mM MgCl2, 1 mM DTT, 1 mg/ml BSA. The assay was carried out in this buffer. • Assay Format The kinase activity of all three JAK kinases was measured using a radioactive, end-point assay and with trace amounts of ^33P-ATP. The assays were carried out in 96-well polypropylene plates. Experimental Method:
All concentrations were final in the reaction mixture and all incubations were carried at room temperature. […] Final concentration of DMSO in the reaction was 10%. • 2) Compounds were preincubated with enzyme (0.5 nM JAK3 (commercially available), 0.2 nM JAK3 (prepared), 1 nM JAK2, 5 nM JAK1) for 10 minutes. • 3) Reactions were initiated by the addition of a cocktail of the two substrates (ATP and peptide premixed in the JAK Kinase Buffer). In the JAK2/JAK3 assays, ATP and the peptide were used at concentrations of 1.5 uM and 50 uM, respectively. JAK1 assay was carried out at an ATP concentration of 10 uM and a peptide concentration of 50 uM. • 4) The duration of the assay for JAK2 and JAK3 is 20 minutes. JAK1 assay was carried out for 40 minutes. With all three enzymes, reactions were terminated by the addition of 0.5M EDTA to a final concentration of 100 mM. • 5) 25 ul of terminated reactions were transferred to 150 ul of a 7.5% (v/v) slurry of streptavidin-coated sepharose beads in MgCl2- and CaCl2-free 1× Phosphate Buffered Saline containing 50 mM of EDTA in 96-well, 1.2 um MultiScreen-BV filter plates. • 6) After a 30-minute incubation, the beads were washed under vacuum with the following buffers: • a. 3 to 4 washes with 200 ul of 2M NaCl. • b. 3 to 4 washes with 200 ul of 2M NaCl plus 1% (v/v) phosphoric acid. • c. 1 wash with water. • 7) Washed plates were dried in a 60° C. oven for between 1 to 2 hours. • 8) 70 ul of Microscint 20 scintillation fluid was added to each well of filter plates and after at least 30 minutes of incubation, radioactive counts were measured in a Perkinelmer microplate scintillation counter.

| Compound | IC50 |
| --- | --- |
| N#CC1CN(C(=O)[C@H](NC(=O)c2c[nH]c3ncc(-c4cn(-c5cc(F)ccc5F)cn4)nc23)C2CC2)C1 [Example I-132, 2-[1-(2,5-Difluoro-phenyl)-1H-imidazol-4-yl]-5H-pyrrolo[2,3-b]pyrazine-7-carboxylic acid [(R)-2-(3-cyano-azetidin-1-yl)-1-cyclopropyl-2-oxo-ethyl]-amide] | 0.49 nM |
| N#CC1CN(C(=O)[C@H](NC(=O)c2c[nH]c3ncc(-c4cn(-c5cc(F)cc(F)c5F)cn4)nc23)C2CC2)C1 [Example I-133, 2-[1-(2,3,5-Trifluoro-phenyl)-1H-imidazol-4-yl]-5H-pyrrolo[2,3-b]pyrazine-7-carboxylic acid [(R)-2-(3-cyano-azetidin-1-yl)-1-cyclopropyl-2-oxo-ethyl]-amide] | 1.67 nM |
| CC(C)(C)[C@@H](NC(=O)c1c[nH]c2ncc(C3CC3)nc12)C(=O)N1CCc2ncccc2C1 [Example I-135, 2-Cyclopropyl-5H-pyrrolo[2,3-b]pyrazine-7-carboxylic acid [(R)-1-(7,8-dihydro-5H-[1,6]naphthyridine-6-carbonyl)-2,2-dimethyl-propyl]-amide] | 6.11 nM |
| N#CC1CN(C(=O)[C@H](NC(=O)c2c[nH]c3ncc(C4CC4)nc23)C2CCOCC2)C1 [Example I-136, 2-Cyclopropyl-5H-pyrrolo[2,3-b]pyrazine-7-carboxylic acid [(R)-2-(3-cyano-azetidin-1-yl)-2-oxo-1-(tetrahydro-pyran-4-yl)-ethyl]-amide] | 7.11 nM |
| N#CC1CN(C(=O)[C@@H](NC(=O)c2c[nH]c3ncc(C4CC4)nc23)C2CCOCC2)C1 [Example I-137, 2-Cyclopropyl-5H-pyrrolo[2,3-b]pyrazine-7-carboxylic acid [(S)-2-(3-cyano-azetidin-1-yl)-2-oxo-1-(tetrahydro-pyran-4-yl)-ethyl]-amide] | 539 nM |
| CC(C)(C)[C@@H](NC(=O)c1c[nH]c2ncc(C3CC3)nc12)C(=O)N1CCc2ccccc21 [Example I-138, 2-Cyclopropyl-5H-pyrrolo[2,3-b]pyrazine-7-carboxylic acid [(R)-1-(2,3-dihydro-indole-1-carbonyl)-2,2-dimethyl-propyl]-amide] | 19.1 nM |
| CCn1cc(-c2cnc3[nH]cc(C(=O)N[C@@H](C(=O)N4CCC(F)(F)C4)C4CC4)c3n2)cn1 [Example I-139, 2-(1-Ethyl-1H-pyrazol-4-yl)-5H-pyrrolo[2,3-b]pyrazine-7-carboxylic acid [(R)-1-cyclopropyl-2-(3,3-difluoro-pyrrolidin-1-yl)-2-oxo-ethyl]-amide] | ≤ 0.32 nM |
| CCn1cc(-c2cnc3[nH]cc(C(=O)N[C@@H](C(=O)N4CCC(C)(O)CC4)C(C)(C)C)c3n2)cn1 [Example I-140, 2-(1-Ethyl-1H-pyrazol-4-yl)-5H-pyrrolo[2,3-b]pyrazine-7-carboxylic acid [(R)-1-(4-hydroxy-4-methyl-piperidine-1-carbonyl)-2,2-dimethyl-propyl]-amide] | 0.68 nM |
| Cn1cc(-c2cnc3[nH]cc(C(=O)N[C@@H](C(=O)N4CC(C)(C#N)C4)C4CC4)c3n2)cn1 [Example I-142, 2-(1-Methyl-1H-pyrazol-4-yl)-5H-pyrrolo[2,3-b]pyrazine-7-carboxylic acid [(R)-2-(3-cyano-3-methyl-azetidin-1-yl)-1-cyclopropyl-2-oxo-ethyl]-amide] | 0.47 nM |
| Cn1cc(-c2cnc3[nH]cc(C(=O)N[C@@H](C(=O)N4CC(C)(C#N)C4)C(C)(C)C)c3n2)cn1 [Example I-143, 2-(1-Methyl-1H-pyrazol-4-yl)-5H-pyrrolo[2,3-b]pyrazine-7-carboxylic acid [(R)-1-(3-cyano-3-methyl-azetidine-1-carbonyl)-2,2-dimethyl-propyl]-amide] | 0.42 nM |
| CCn1cc(-c2cnc3[nH]cc(C(=O)N[C@@H](C(=O)N4CCC(F)(F)CC4)C4CC4)c3n2)cn1 [Example I-144, 2-(1-Ethyl-1H-pyrazol-4-yl)-5H-pyrrolo[2,3-b]pyrazine-7-carboxylic acid [(R)-1-cyclopropyl-2-(4,4-difluoro-piperidin-1-yl)-2-oxo-ethyl]-amide] | 0.62 nM |
| CC(C)(C)c1ccnc(-c2cnc3[nH]cc(C(=O)N[C@@H](C(=O)N4CCC(C#N)CC4)C4CC4)c3n2)c1 [Example I-145, 2-(4-tert-Butyl-pyridin-2-yl)-5H-pyrrolo[2,3-b]pyrazine-7-carboxylic acid [(R)-2-(4-cyano-piperidin-1-yl)-1-cyclopropyl-2-oxo-ethyl]-amide] | 15.2 nM |
| CCn1cc(-c2cnc3[nH]cc(C(=O)N[C@@H](C(=O)N4CCC(O)(C(F)(F)F)CC4)C4CC4)c3n2)cn1 [Example I-146, 2-(1-Ethyl-1H-pyrazol-4-yl)-5H-pyrrolo[2,3-b]pyrazine-7-carboxylic acid [(R)-1-cyclopropyl-2-(4-hydroxy-4-trifluoromethyl-piperidin-1-yl)-2-oxo-ethyl]-amide] | 0.38 nM |
| N#CC1CCN(C(=O)[C@H](NC(=O)c2c[nH]c3ncc(-c4cc(-c5ccccc5)ccn4)nc23)C2CC2)CC1 [Example I-147, 2-(4-Phenyl-pyridin-2-yl)-5H-pyrrolo[2,3-b]pyrazine-7-carboxylic acid [(R)-2-(4-cyano-piperidin-1-yl)-1-cyclopropyl-2-oxo-ethyl]-amide] | 4.46 nM |
| CCn1cc(-c2cnc3[nH]cc(C(=O)N[C@@H](C(=O)N4CC(C)(O)C4)C4CC4)c3n2)cn1 [Example I-148, 2-(1-Ethyl-1H-pyrazol-4-yl)-5H-pyrrolo[2,3-b]pyrazine-7-carboxylic acid [(R)-1-cyclopropyl-2-(3-hydroxy-3-methyl-azetidin-1-yl)-2-oxo-ethyl]-amide] | 1.98 nM |
| CC[C@@H](C)[C@@H](NC(=O)c1c[nH]c2ncc(C3CC3)nc12)C(=O)N1CCC(C#N)CC1 [Example I-149, 2-Cyclopropyl-5H-pyrrolo[2,3-b]pyrazine-7-carboxylic acid [(1R,2R)-1-(4-cyano-piperidine-1-carbonyl)-2-methyl-butyl]-amide] | 1.27 nM |
| Cn1cc(-c2cnc3[nH]cc(C(=O)N[C@@H](C(=O)N4CC(F)(F)C4)C4CC4)c3n2)cn1 [Example I-150, 2-(1-Methyl-1H-pyrazol-4-yl)-5H-pyrrolo[2,3-b]pyrazine-7-carboxylic acid [(R)-1-cyclopropyl-2-(3,3-difluoro-azetidin-1-yl)-2-oxo-ethyl]-amide] | 2 nM |
| CCC1(C#N)CN(C(=O)[C@H](NC(=O)c2c[nH]c3ncc(-c4cnn(C)c4)nc23)C2CC2)C1 [Example I-151, 2-(1-Methyl-1H-pyrazol-4-yl)-5H-pyrrolo[2,3-b]pyrazine-7-carboxylic acid [(R)-2-(3-cyano-3-ethyl-azetidin-1-yl)-1-cyclopropyl-2-oxo-ethyl]-amide] | ≤ 0.32 nM |
| C[C@@H](NC(=O)c1c[nH]c2ncc(-c3cc(-n4cccn4)ccn3)nc12)C(=O)N1CC(C#N)C1 [Example I-152, 2-(4-Pyrazol-1-yl-pyridin-2-yl)-5H-pyrrolo[2,3-b]pyrazine-7-carboxylic acid [(R)-2-(3-cyano-azetidin-1-yl)-1-methyl-2-oxo-ethyl]-amide] | 9.52 nM |
| C[C@@H](NC(=O)c1c[nH]c2ncc(-c3cc(-n4cccc4)ccn3)nc12)C(=O)N1CC(C#N)C1 [Example I-153, 2-(4-Pyrrol-1-yl-pyridin-2-yl)-5H-pyrrolo[2,3-b]pyrazine-7-carboxylic acid [(R)-2-(3-cyano-azetidin-1-yl)-1-methyl-2-oxo-ethyl]-amide] | 9.02 nM |
| N#CC1CCN(C(=O)[C@H](NC(=O)c2c[nH]c3ncc(-c4cc(-c5cccs5)ccn4)nc23)C2CC2)CC1 [Example I-154, 2-(4-Thiophen-2-yl-pyridin-2-yl)-5H-pyrrolo[2,3-b]pyrazine-7-carboxylic acid [(R)-2-(4-cyano-piperidin-1-yl)-1-cyclopropyl-2-oxo-ethyl]-amide] | 3.06 nM |
| CNC(=O)c1ccnc(-c2cnc3[nH]cc(C(=O)N[C@H](C)C(=O)N4CC(C#N)C4)c3n2)c1 [Example I-155, 2-(4-Methylcarbamoyl-pyridin-2-yl)-5H-pyrrolo[2,3-b]pyrazine-7-carboxylic acid [(R)-2-(3-cyano-azetidin-1-yl)-1-methyl-2-oxo-ethyl]-amide] | 10.5 nM |
| CC(C)(C)[C@@H](NC(=O)c1c[nH]c2ncc(-c3cnc(Cl)s3)nc12)C(=O)N1CCC(C#N)CC1 [Example I-156, 2-(2-Chloro-thiazol-5-yl)-5H-pyrrolo[2,3-b]pyrazine-7-carboxylic acid [(R)-1-(4-cyano-piperidine-1-carbonyl)-2,2-dimethyl-propyl]-amide] | 5.97 nM |
| Cc1nc(-c2cnc3[nH]cc(C(=O)N[C@@H](C(=O)N4CC(C#N)C4)C(C)(C)C)c3n2)cn1-c1cc(F)cc(F)c1 [Example I-157, 2-[1-(3,5-Difluoro-phenyl)-2-methyl-1H-imidazol-4-yl]-5H-pyrrolo[2,3-b]pyrazine-7-carboxylic acid [(R)-1-(3-cyano-azetidine-1-carbonyl)-2,2-dimethyl-propyl]-amide] | 3.28 nM |
| Cc1nc(-c2cnc3[nH]cc(C(=O)N[C@@H](C(=O)N4CC(C#N)C4)C(C)(C)C)c3n2)cn1-c1cccc(F)c1 [Example I-158, 2-[1-(3-Fluoro-phenyl)-2-methyl-1H-imidazol-4-yl]-5H-pyrrolo[2,3-b]pyrazine-7-carboxylic acid [(R)-1-(3-cyano-azetidine-1-carbonyl)-2,2-dimethyl-propyl]-amide] | 2.34 nM |
| Cc1nc(-c2cnc3[nH]cc(C(=O)N[C@@H](C(=O)N4CC(C#N)C4)C4CC4)c3n2)cn1-c1ccccc1 [Example I-159, 2-(2-Methyl-1-phenyl-1H-imidazol-4-yl)-5H-pyrrolo[2,3-b]pyrazine-7-carboxylic acid [(R)-2-(3-cyano-azetidin-1-yl)-1-cyclopropyl-2-oxo-ethyl]-amide] | 2.66 nM |
| N#CC1CN(C(=O)[C@H](NC(=O)c2c[nH]c3ncc(-c4ccc(C(F)(F)F)cc4)nc23)C2CC2)C1 [Example I-160, 2-(4-Trifluoromethyl-phenyl)-5H-pyrrolo[2,3-b]pyrazine-7-carboxylic acid [(R)-2-(3-cyano-azetidin-1-yl)-1-cyclopropyl-2-oxo-ethyl]-amide] | 0.38 nM |
